Data set [1] has as its system Male albino mice. Briefly: Hot-plate test (plate at 55°C), analgesic activity by the oral route. It counts as in vivo, mouse. The settings on record: read-out: Hot place EX50. On the procedure: (§1) The analgesic activity of the compound of formula I by the oral route, has been determined in the mouse using the following tests: • - Phenylquinone test (Hendershot and Forsaith - J. Pharma- col. Exptl. Ther. 123, 237 (1959)); • - Hot-plate test. Male albino mice, treated with increasing doses of the compound under exam, are placed on a plate thermostatized at 55°C. An effective dose 50 (ED50) is defined as the dose inducing a 50% increase of the reaction time to the pain stimulus.
(In general: Hot-plate and tail-flick tests time the reaction to a heat stimulus.)

The subject of data set [2] is mouse. Briefly: Phenylquinone test, analgesic activity by the oral route. It counts as in vivo. On the procedure: as §1
The subject of data set [3] is prostaglandine-synthetase. The settings on record: background statement on the known drug; cited from earlier work.
Data set [4] deals with cyclooxygenase. Particulars: background statement on the known drug; cited from earlier work.
The subject of data set [5] is mouse. Briefly: Jumping by nalorphine (physical addiction). It counts as in vivo.
Data set [6] deals with prostaglandine-synthetase. The experiment in a line: Prostaglandine-synthetase inhibitory activity. The data set is classed as biochemical.
Data set [7] deals with cyclooxygenase. Briefly: Cyclooxygenase inhibitory activity. The data set is classed as biochemical.
A short description of data set [8]: Acute toxicity per os. The settings on record: in vivo, po, mouse, at the 14th observation day. An excerpt:
The acute toxicity per os is expressed as LD50 at the 14th observation day.

Read-outs that look alike come from different tables or passages of the source. Bounds are passed on as bounds.

As a reminder, the LD50 is the dose expected to kill half of the subjects tested. Low readings indicate a more toxic substance, high ones a less toxic substance.

As to `COc1ccc2c3c1O[C@H]1[C@@H](O)C=C[C@H]4[C@@H](C2)N(C)CC[C@@]341.Cl` [Codeine HCl, codeine hydrochloride, reference compound], the ED50 in data set [1] (Mus musculus, po) was 25 mg/kg; in data set [2], 5.6 mg/kg.
`Cc1cc(CC(=O)O)n(C)c1C(=O)c1ccc(Cl)cc1` [zomepirac, 5-(p-chlorobenzoyl)-l,4-dimethylpyrrole-2-acetic acid]: the “capacity of inhibiting prostaglandine-synthetase” value in data set [3] was “capacity of inhibiting the enzymes cyclooxygenase and prostaglandine-synthetase”. Besides, the “capacity of inhibiting cyclooxygenase” value in data set [4] is “capacity of inhibiting the enzymes cyclooxygenase and prostaglandine-synthetase”.
Turning to `Cc1c(C(=O)O)c(C)n(C)c1C(=O)c1ccc(F)cc1` [Compound I, 5-(4-fluoro-benzoyl)-1,2,4-trimethyl-3-pyrrolcarboxylic acid], in data set [5], the jumping by nalorphine result is recorded as “does not induce”. Moreover, the prostaglandine-synthetase inhibitory activity entry in data set [6] is “without cyclooxygenase and prostaglandine-synthetase inhibitory activity”. Besides, the ED50 in data set [1] (mouse, oral route, plate at 55°C, dose inducing a 50% increase of the reaction time to the pain stimulus) was found to be 3.5 mg/kg; in data set [2], 2.1 mg/kg. Further, in data set [7], the cyclooxygenase inhibitory activity entry was “without cyclooxygenase and prostaglandine-synthetase inhibitory activity”. Besides, the LD50 at 336 h in data set [8] was greater than 1600 mg/kg.
